Reference: ChEMBL document CHEMBL5244205, “Discovery of tricyclic dipyrrolopyridine derivatives as novel JAK inhibitors” (Bioorg Med Chem, 2017)

Columns and labels:
[1] = biological target: Epidermal growth factor receptor (Homo sapiens, UniProt P00533); test: Inhibition of EGFR (unknown origin)
[2] = Inhibition of SYK (unknown origin); parameters: species or system Homo sapiens
[3] = Oral availability in Sprague-Dawley rat at 1 mg/kg measured up to 24 hrs by LC-MS/MS analysis; type: ADME, organism-based; conditions: in vivo
[4] = Half life in Sprague-Dawley rat at 1 mg/kg, iv measured up to 24 hrs by LC-MS/MS analysis; type: ADME, organism-based; conditions: in vivo
Cytochrome P450 3A4 = Cytochrome P450 3A4 (Homo sapiens, UniProt P08684); conditions: microsomes, 20 min, 5 µM
[5] = Tmax in Sprague-Dawley rat at 1 mg/kg, po measured up to 24 hrs by LC-MS/MS analysis; type: ADME, organism-based; conditions: in vivo
[6] = biological target: Mitogen-activated protein kinase kinase kinase 1 (Homo sapiens, UniProt Q13233); test: Inhibition of MAP3K1 (unknown origin)
[7] = biological target: MAP kinase-activated protein kinase 2 (Homo sapiens, UniProt P49137); test: Inhibition of MAPKAPK2 (unknown origin)
[8] = biological target: RAF proto-oncogene serine/threonine-protein kinase (Homo sapiens, UniProt P04049); test: Inhibition of RAF1 (unknown origin)
[9] = biological target: Insulin-like growth factor 1 receptor (Homo sapiens, UniProt P08069); test: Inhibition of IGF1R (unknown origin)
Focal adhesion kinase 1 = Focal adhesion kinase 1 (Homo sapiens, UniProt Q05397); test: Inhibition of FAK (unknown origin)
[10] = biological target: Tyrosine-protein kinase CSK (Homo sapiens, UniProt P41240); test: Inhibition of CSK (unknown origin)
[11] = biological target: Tyrosine-protein kinase ZAP-70 (Homo sapiens, UniProt P43403); test: Inhibition of ZAP70 (unknown origin)
[12] = biological target: Bone morphogenetic protein receptor type-1A (Homo sapiens, UniProt P36894); test: Inhibition of BMPR1A (unknown origin)
[13] = Cmax in Sprague-Dawley rat at 1 mg/kg, po measured up to 24 hrs by LC-MS/MS analysis; type: ADME, organism-based; parameters: time < 24 hrs, dose 1 mg/kg, route po; conditions: in vivo
[14] = biological target: Casein kinase I isoform delta (Homo sapiens, UniProt P48730); test: Inhibition of CHKdelta (unknown origin)
[15] = biological target: Tyrosine-protein kinase ITK/TSK (Homo sapiens, UniProt Q08881); test: Inhibition of ITK (unknown origin)
Ephrin type-A receptor 2 = Ephrin type-A receptor 2 (Homo sapiens, UniProt P29317); test: Inhibition of EphA2 (unknown origin)
[16] = biological target: Mitogen-activated protein kinase 11 (Homo sapiens, UniProt Q15759); test: Inhibition of P38beta (unknown origin)
[17] = biological target: Tyrosine-protein kinase BTK (Homo sapiens, UniProt Q06187); test: Inhibition of BTK (unknown origin)
[18] = biological target: Tyrosine-protein kinase ABL1 (Homo sapiens, UniProt P00519); test: Inhibition of ABL (unknown origin)
[19] = Half life in Sprague-Dawley rat at 1 mg/kg, po measured up to 24 hrs by LC-MS/MS analysis; type: ADME, organism-based; conditions: in vivo
[20] = AUC (0 to 24 hrs) in Sprague-Dawley rat at 1 mg/kg, iv measured up to 24 hrs by LC-MS/MS analysis; type: ADME, organism-based; parameters: dose 1 mg/kg, time < 24 hrs, route iv; conditions: in vivo
[21] = pampa, pH 6.5, 2 h
Description: Permeability of the compound in pH 6.5 incubated for 2 hrs by PAMPA based HPLC analysis

[22] = Clearance in Sprague-Dawley rat at 1 mg/kg, iv measured up to 24 hrs by LC-MS/MS analysis; type: ADME, organism-based; conditions: in vivo
[23] = biological target: Inhibitor of nuclear factor kappa-B kinase subunit beta (Homo sapiens, UniProt O14920); test: Inhibition of IKKB (unknown origin)
[24] = AUC (0 to 24 hrs) in Sprague-Dawley rat at 1 mg/kg, po measured up to 24 hrs by LC-MS/MS analysis; type: ADME, organism-based; parameters: dose 1 mg/kg, time < 24 hrs, route po; conditions: in vivo
[25] = Volume of distribution in Sprague-Dawley rat at 1 mg/kg, iv measured up to 24 hrs by LC-MS/MS analysis; type: ADME, organism-based; conditions: in vivo
Angiopoietin-1 receptor = Angiopoietin-1 receptor (Homo sapiens, UniProt Q02763); test: Inhibition of TIE2 (unknown origin)
Angiopoietin-1 receptor, sequence (Q02763 whole entry): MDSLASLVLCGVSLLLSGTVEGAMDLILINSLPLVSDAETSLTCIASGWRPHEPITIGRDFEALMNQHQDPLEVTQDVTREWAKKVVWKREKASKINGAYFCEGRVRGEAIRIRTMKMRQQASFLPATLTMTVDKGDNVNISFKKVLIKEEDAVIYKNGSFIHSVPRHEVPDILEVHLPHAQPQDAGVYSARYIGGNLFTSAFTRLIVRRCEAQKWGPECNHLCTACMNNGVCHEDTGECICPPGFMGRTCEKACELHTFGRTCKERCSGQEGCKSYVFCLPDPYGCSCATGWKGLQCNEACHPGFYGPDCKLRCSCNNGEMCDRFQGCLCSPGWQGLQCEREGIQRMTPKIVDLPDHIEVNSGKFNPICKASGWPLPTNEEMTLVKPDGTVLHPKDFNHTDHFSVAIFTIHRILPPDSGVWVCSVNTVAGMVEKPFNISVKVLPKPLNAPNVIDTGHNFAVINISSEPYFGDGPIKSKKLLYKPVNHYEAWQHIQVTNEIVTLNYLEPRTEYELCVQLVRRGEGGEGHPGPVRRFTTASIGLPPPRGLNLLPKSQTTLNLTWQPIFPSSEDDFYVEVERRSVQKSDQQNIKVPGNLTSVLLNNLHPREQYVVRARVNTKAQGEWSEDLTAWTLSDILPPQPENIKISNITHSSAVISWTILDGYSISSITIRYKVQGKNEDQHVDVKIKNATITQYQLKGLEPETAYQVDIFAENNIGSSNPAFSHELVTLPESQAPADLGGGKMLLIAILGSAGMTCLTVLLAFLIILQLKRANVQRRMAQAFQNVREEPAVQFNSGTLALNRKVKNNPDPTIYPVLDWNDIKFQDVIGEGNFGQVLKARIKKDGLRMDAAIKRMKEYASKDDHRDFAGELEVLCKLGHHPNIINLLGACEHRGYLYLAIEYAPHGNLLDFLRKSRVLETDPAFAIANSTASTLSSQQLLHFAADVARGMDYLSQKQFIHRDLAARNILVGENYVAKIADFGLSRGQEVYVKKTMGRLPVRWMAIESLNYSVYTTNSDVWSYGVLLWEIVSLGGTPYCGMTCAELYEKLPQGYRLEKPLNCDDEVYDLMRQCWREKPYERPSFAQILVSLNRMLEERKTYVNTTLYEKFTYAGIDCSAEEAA

Bone morphogenetic protein receptor type-1A, sequence (P36894 whole entry): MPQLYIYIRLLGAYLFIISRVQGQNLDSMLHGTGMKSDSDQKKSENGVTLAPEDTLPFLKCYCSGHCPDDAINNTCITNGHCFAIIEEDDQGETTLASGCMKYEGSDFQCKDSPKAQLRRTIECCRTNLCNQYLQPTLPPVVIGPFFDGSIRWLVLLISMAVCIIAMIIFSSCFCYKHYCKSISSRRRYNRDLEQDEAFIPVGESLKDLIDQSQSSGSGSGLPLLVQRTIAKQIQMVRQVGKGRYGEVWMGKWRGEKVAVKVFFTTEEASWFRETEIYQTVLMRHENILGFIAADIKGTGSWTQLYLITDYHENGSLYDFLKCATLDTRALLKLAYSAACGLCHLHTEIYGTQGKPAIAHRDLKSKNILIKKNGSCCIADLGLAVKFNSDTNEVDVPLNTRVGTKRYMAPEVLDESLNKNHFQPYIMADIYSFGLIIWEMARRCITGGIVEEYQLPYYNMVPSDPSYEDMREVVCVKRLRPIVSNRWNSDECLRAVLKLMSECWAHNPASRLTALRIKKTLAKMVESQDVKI
RAF proto-oncogene serine/threonine-protein kinase, sequence (P04049 whole entry): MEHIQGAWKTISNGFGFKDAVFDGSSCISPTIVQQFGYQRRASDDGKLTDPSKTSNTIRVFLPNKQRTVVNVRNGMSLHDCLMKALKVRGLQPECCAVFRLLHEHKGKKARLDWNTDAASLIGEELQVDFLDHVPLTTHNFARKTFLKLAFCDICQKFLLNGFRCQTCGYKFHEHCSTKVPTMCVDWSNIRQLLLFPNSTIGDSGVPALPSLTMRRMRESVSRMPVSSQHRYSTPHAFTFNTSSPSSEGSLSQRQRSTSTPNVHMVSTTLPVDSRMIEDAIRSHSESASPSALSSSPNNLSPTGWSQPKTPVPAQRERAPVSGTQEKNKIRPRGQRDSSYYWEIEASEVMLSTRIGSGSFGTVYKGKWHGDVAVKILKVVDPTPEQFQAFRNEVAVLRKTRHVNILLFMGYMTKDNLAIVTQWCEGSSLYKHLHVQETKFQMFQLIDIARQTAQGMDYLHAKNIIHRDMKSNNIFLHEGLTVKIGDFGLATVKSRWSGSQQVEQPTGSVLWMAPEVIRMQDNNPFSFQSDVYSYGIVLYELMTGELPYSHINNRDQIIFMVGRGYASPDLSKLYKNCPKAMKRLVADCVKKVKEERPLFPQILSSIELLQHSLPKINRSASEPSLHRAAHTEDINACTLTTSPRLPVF
Mitogen-activated protein kinase 11, sequence (Q15759 whole entry): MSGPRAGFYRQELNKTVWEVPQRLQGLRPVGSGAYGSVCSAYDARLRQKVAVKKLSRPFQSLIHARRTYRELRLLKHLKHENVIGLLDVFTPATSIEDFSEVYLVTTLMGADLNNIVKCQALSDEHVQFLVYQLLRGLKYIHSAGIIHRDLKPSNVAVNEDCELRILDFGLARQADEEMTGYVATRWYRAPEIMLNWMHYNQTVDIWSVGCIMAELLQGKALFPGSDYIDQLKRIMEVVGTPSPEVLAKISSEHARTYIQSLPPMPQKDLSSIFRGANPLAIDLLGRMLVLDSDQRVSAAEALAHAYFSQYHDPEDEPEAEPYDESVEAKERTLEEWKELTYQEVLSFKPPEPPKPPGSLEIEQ
Insulin-like growth factor 1 receptor, sequence (P08069 31-736 limits assumed): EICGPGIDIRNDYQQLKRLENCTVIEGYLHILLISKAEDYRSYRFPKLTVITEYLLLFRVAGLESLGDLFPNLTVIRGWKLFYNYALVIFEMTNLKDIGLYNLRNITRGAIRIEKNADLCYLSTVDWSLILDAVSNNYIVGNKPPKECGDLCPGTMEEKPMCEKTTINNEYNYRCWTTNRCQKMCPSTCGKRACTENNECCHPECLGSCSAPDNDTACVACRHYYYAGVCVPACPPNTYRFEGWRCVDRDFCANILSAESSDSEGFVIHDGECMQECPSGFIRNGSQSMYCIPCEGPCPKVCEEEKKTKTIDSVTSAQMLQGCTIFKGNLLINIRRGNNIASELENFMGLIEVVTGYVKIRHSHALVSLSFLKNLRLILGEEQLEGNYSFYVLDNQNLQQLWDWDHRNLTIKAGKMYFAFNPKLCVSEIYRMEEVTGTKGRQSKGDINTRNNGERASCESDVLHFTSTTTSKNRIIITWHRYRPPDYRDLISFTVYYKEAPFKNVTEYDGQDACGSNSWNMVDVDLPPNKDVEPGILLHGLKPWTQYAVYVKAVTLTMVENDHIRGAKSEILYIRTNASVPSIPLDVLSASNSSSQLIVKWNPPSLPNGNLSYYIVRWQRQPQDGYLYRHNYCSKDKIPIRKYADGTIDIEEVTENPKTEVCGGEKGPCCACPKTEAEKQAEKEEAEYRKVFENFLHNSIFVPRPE
Insulin-like growth factor 1 receptor, sequence (P08069 741-1367 limits assumed): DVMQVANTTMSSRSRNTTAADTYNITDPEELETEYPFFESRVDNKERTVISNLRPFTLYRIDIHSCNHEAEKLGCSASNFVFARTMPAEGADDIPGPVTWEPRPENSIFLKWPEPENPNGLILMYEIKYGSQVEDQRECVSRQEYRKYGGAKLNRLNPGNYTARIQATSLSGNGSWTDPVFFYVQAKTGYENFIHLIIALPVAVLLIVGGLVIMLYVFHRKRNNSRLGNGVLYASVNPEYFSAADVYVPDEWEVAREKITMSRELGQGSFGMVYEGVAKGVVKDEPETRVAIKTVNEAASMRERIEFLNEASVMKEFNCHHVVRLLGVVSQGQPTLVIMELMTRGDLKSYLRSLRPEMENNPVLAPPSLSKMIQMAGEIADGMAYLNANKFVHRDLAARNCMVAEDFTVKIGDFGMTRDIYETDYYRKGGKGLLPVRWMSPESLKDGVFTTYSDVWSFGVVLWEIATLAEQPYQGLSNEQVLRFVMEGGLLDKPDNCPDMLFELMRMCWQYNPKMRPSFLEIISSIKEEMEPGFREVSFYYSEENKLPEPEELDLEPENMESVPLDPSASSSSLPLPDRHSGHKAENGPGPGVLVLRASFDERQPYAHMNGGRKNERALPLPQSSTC
Cytochrome P450 3A4, sequence (P08684 whole entry): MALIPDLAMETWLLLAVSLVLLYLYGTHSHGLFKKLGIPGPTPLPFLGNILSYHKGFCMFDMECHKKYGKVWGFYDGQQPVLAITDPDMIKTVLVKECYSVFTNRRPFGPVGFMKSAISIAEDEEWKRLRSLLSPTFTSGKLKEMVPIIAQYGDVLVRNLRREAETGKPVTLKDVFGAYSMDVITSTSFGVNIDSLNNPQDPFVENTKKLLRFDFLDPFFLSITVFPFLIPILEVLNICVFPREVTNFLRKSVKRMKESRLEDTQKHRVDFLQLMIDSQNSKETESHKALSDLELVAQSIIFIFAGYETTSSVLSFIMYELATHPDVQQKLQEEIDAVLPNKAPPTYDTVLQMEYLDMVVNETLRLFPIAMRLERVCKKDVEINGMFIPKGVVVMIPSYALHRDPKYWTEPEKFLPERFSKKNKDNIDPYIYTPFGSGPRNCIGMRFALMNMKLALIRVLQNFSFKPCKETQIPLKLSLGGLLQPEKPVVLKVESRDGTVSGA
MAP kinase-activated protein kinase 2, sequence (P49137 whole entry): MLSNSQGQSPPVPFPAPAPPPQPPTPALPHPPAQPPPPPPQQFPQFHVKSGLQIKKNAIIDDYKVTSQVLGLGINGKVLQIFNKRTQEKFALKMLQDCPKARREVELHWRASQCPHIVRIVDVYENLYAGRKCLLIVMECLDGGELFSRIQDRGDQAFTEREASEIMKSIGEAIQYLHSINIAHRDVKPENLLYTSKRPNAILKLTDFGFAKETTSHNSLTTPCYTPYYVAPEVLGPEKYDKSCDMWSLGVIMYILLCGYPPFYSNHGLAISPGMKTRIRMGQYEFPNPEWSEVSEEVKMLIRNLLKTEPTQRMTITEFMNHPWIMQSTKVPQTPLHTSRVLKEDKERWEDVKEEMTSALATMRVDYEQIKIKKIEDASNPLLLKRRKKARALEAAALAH

IC50 [1]: > 1000 nM | IC50 [2]: > 1000 nM | bioavailability [3]: 82.4% | half-life [4]: 7.86 h | TDI (Cytochrome P450 3A4): 93% | Tmax [5]: 0.33 h | IC50 [6]: > 1000 nM | IC50 [7]: > 1000 nM | IC50 [8]: > 1000 nM | IC50 [9]: > 1000 nM | IC50 (Focal adhesion kinase 1): > 1000 nM | IC50 [10]: > 1000 nM | IC50 [11]: > 1000 nM | IC50 [12]: > 1000 nM | Cmax [13]: 178 ng/mL | IC50 [14]: > 1000 nM | IC50 [15]: > 1000 nM | IC50 (Ephrin type-A receptor 2): > 1000 nM | IC50 [16]: > 1000 nM | IC50 [17]: > 1000 nM | IC50 [18]: > 1000 nM | half-life [19]: 3.99 h | AUC(0-t) at 24 h [20]: 1110 ng·h/mL | permeability [21]: 14 10^-6 cm/s | clearance [22]: 20.2 mL/min/kg | IC50 [23]: > 1000 nM | AUC(0-t) at 24 h [24]: 916 ng·h/mL | Vd [25]: 0.97 L/kg | IC50 (Angiopoietin-1 receptor): > 1000 nM
Compound: C[C@@H]1CCN(C(=O)CC#N)C[C@@H]1n1ccc2cnc3[nH]cc(C#N)c3c21
